Data taken from US9102678B2, “Compounds and methods for inhibiting mitotic progression” (Millennium Pharmaceuticals, Inc., priority 2004, dated 2015).

Each compound was assayed against T1, recombinant murine Aurora A enzyme (Mus musculus, UniProt P97477) (assay: Aurora A DELFIA Kinase Assay). Conditions: mouse Aurora A, 250 μM ATP; threshold less than or equal to 100 nM; read-out: IC50.
T1 construct: hexahistidine (His6) (N); made in house; host or cells: insect cells, baculovirus (Bac-to-Bac, Invitrogen)
T1 sequence (P97477 whole entry): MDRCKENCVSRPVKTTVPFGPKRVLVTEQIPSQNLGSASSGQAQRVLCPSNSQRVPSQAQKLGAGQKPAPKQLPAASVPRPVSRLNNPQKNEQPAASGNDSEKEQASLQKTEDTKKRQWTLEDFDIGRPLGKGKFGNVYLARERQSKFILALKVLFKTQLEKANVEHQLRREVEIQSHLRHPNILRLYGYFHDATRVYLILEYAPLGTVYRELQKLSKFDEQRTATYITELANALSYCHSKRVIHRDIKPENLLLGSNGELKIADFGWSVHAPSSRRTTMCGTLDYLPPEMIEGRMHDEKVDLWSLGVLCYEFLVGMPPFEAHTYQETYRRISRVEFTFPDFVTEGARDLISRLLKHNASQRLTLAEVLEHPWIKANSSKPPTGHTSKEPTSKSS
Assay type: biochemical

IC50, ≤ 100 nM:
COc1cccc(F)c1C1=NCc2cnc(Nc3cccc(C(=O)N(C)CCCN(C)C)c3)nc2-c2ccc(Cl)cc21 [Compound I-226, 3-{[9-chloro-7-(2-fluoro-6-methoxyphenyl)-5H-pyrimido[5,4-d][2]benzazepin-2-yl]amino}-N-[3-(dimethylamino)propyl]-N-methylbenzamide]
COc1cccc(F)c1C1=NCc2cnc(Nc3cccc(C(=O)N4CC(N(C)C)C4)c3)nc2-c2ccc(Cl)cc21 [Compound I-227, 9-chloro-N-(3-{[3-(dimethylamino)azetidin-1-yl]carbonyl}phenyl)-7-(2-fluoro-6-methoxyphenyl)-5H-pyrimido[5,4-d][2]benzazepin-2-amine]
COc1cccc(F)c1C1=NCc2cnc(Nc3cccc(C(=O)N4CC(C)NC(C)C4)c3)nc2-c2ccc(Cl)cc21 (centres unmarked) [Compound I-228, 9-chloro-N-{3-[(3,5-dimethylpiperazin-1-yl)carbonyl]phenyl}-7-(2-fluoro-6-methoxyphenyl)-5H-pyrimido[5,4-d][2]benzazepin-2-amine]
COc1cccc(F)c1C1=NCc2cnc(Nc3cccc(C(=O)N4CCC(N(C)C)CC4)c3)nc2-c2ccc(Cl)cc21 [Compound I-229, 9-chloro-N-(3-{[4-(dimethylamino)piperidin-1-yl]carbonyl}phenyl)-7-(2-fluoro-6-methoxyphenyl)-5H-pyrimido[5,4-d][2]benzazepin-2-amine]
COc1cccc(F)c1C1=NCc2cnc(Nc3cccc(C(=O)N4CCC(N(C)C)C4)c3)nc2-c2ccc(Cl)cc21 (centres unmarked) [Compound I-231, 9-chloro-N-(3-{[3-(dimethylamino)pyrrolidin-1-yl]carbonyl}phenyl)-7-(2-fluoro-6-methoxyphenyl)-5H-pyrimido[5,4-d][2]benzazepin-2-amine]
COc1cccc(F)c1C1=NCc2cnc(Nc3ccc(C(=O)N4CCNC(C)C4)cc3)nc2-c2ccc(Cl)cc21 (centres unmarked) [Compound I-232]
COc1cccc(F)c1C1=NCc2cnc(Nc3ccc(C(=O)N4CCN(C)CC4)cc3)nc2-c2ccc(Cl)cc21 [Compound I-233, 9-chloro-7-(2-fluoro-6-methoxyphenyl)-N-{4-[(4-methylpiperazin-1-yl)carbonyl]phenyl}-5H-pyrimido[5,4-d][2]benzazepin-2-amine]
CNC1CN(C(=O)c2ccc(Nc3ncc4c(n3)-c3ccc(Cl)cc3C(c3c(F)cccc3F)=NC4)cc2)C1 [Compound I-234, 9-chloro-7-(2,6-difluorophenyl)-N-(4-{[3-(methylamino)azetidin-1-yl]carbonyl}phenyl)-5H-pyrimido[5,4-d][2]benzazepin-2-amine]
CNC1CN(C(=O)c2ccc(Nc3ncc4c(n3)-c3ccc(Cl)cc3C(c3c(F)cccc3OC)=NC4)cc2)C1 [Compound I-235, 9-chloro-7-(2-fluoro-6-methoxyphenyl)-N-(4-{[3-(methylamino)azetidin-1-yl]carbonyl}phenyl)-5H-pyrimido[5,4-d][2]benzazepin-2-amine]
CN(C)C1CCN(C(=N)NC(=O)c2ccc(Nc3ncc4c(n3)-c3ccc(Cl)cc3C(c3c(F)cccc3F)=NC4)cc2)C1 (centres unmarked) [Compound I-237, 4-[9-Chloro-7-(2,6-difluoro-phenyl)-5H-benzo[c]pyrimido[4,5-e]azepin-2-ylamino]-N-[(3-dimethylamino-pyrrolidin-1-yl)-imino-methyl]-benzamide]
CC1CN(C(=N)NC(=O)c2ccc(Nc3ncc4c(n3)-c3ccc(Cl)cc3C(c3c(F)cccc3F)=NC4)cc2)CC(C)N1 (centres unmarked) [Compound I-238, 4-{[9-chloro-7-(2,6-difluorophenyl)-5H-pyrimido[5,4-d][2]benzazepin-2-yl]amino}-N-[(3,5-dimethylpiperazin-1-yl)(imino)methyl]benzamide]
NC1CCN(C(=O)c2ccc(Nc3ncc4c(n3)-c3ccc(Cl)cc3C(c3c(F)cccc3F)=NC4)cc2)CC1 [Compound I-239, N-{4-[(4-aminopiperidin-1-yl)carbonyl]phenyl}-9-chloro-7-(2,6-difluorophenyl)-5H-pyrimido[5,4-d][2]benzazepin-2-amine]
COc1cccc(F)c1C1=NCc2cnc(Nc3ccc(C(=O)N4CCC(N)C4)cc3)nc2-c2ccc(Cl)cc21 (centres unmarked) [Compound I-240]
COc1cccc(F)c1C1=NCc2cnc(Nc3ccc(C(=O)N4CCC(N)CC4)cc3)nc2-c2ccc(Cl)cc21 [Compound I-241, N-{4[(4-aminopiperidin-1-yl)carbonyl]phenyl}-9-chloro-7-(2-fluoro-6-methoxyphenyl)-5H-pyrimido[5,4-d][2]benzazepin-2-amine]
CNC1CCN(C(=O)c2ccc(Nc3ncc4c(n3)-c3ccc(Cl)cc3C(c3c(F)cccc3OC)=NC4)cc2)CC1 [Compound I-242, 9-chloro-7-(2-fluoro-6-methoxyphenyl)-N-(4-{[4-(methylamino)piperidin-1-yl]carbonyl}phenyl)-5H-pyrimido[5,4-d][2]benzazepin-2-amine]
COc1cccc(F)c1C1=NCc2cnc(Nc3ccc(C(=O)N4CCNCC4)cc3)nc2-c2ccc(Cl)cc21 [Compound I-243, 9-chloro-7-(2-fluoro-6-methoxyphenyl)-N-[4-(piperazin-1-ylcarbonyl)phenyl]-5H-pyrimido[5,4-d][2]benzazepin-2-amine]
CN(C)C1CCN(C(=N)c2ccc(Nc3ncc4c(n3)-c3ccc(Cl)cc3C(c3c(F)cccc3F)=NC4)cc2)CC1 [Compound I-244, 9-chloro-7-(2,6-difluorophenyl)-N-{4-[[4-(dimethylamino)piperidin-1-yl](imino)methyl]phenyl}-5H-pyrimido[5,4-d][2]benzazepin-2-amine]
CNCCN(C)C(=O)c1ccc(Nc2ncc3c(n2)-c2ccc(Cl)cc2C(c2c(F)cccc2F)=NC3)cc1 [Compound I-246, 4-{[9-chloro-7-(2,6-difluorophenyl)-5H-pyrimido[5,4-d][2]benzazepin-2-yl]amino}-N-methyl-N-[2-(methylamino)ethyl]benzamide]
CN(C)CCN(C)C(=O)c1ccc(Nc2ncc3c(n2)-c2ccc(Cl)cc2C(c2c(F)cccc2F)=NC3)cc1 [Compound I-247, 4-{[9-chloro-7-(2,6-difluorophenyl)-5H-pyrimido[5,4-d][2]benzazepin-2-yl]amino}-N-[2-(dimethylamino)ethyl]-N-methylbenzamide]
COC(=O)C1CN(C(=O)c2ccc(Nc3ncc4c(n3)-c3ccc(Cl)cc3C(c3c(F)cccc3F)=NC4)cc2)CCN1 (centres unmarked) [Compound I-248, methyl 4-(4-{[9-chloro-7-(2,6-difluorophenyl)-5H-pyrimido[5,4-d][2]benzazepin-2-yl]amino}benzoyl)piperazine-2-carboxylate]
O=C(O)c1ccc(Nc2ncc3c(n2)-c2ccc(C(=O)O)cc2C(c2ccccc2F)=NC3)cc1 [Compound I-249, 2-[(4-carboxyphenyl)amino]-7-(2-fluorophenyl)-5H-pyrimido[5,4-d][2]benzazepine-9-carboxylic acid]
CN(C)C1CCN(C(=N)c2ccc(Nc3ncc4c(n3)-c3ccc(Cl)cc3C(c3c(F)cccc3F)=NC4)cc2)C1 (centres unmarked) [Compound I-250, 9-chloro-7-(2,6-difluorophenyl)-N-{4-[[3-(dimethylamino)pyrrolidin-1-yl](imino)methyl]phenyl}-5H-pyrimido[5,4-d][2]benzazepin-2-amine]
CC1CN(C(=N)c2ccc(Nc3ncc4c(n3)-c3ccc(Cl)cc3C(c3c(F)cccc3F)=NC4)cc2)CC(C)N1 (centres unmarked) [Compound I-251, [9-Chloro-7-(2,6-difluoro-phenyl)-5H-benzo[c]pyrimido[4,5-e]azepin-2-yl]-{4-[(3,5-dimethyl-piperazin-1-yl)-imino-methyl]-phenyl}-amine]
CN(CCN)C(=O)c1ccc(Nc2ncc3c(n2)-c2ccc(Cl)cc2C(c2c(F)cccc2F)=NC3)cc1 [Compound I-252, N-(2-aminoethyl)-4-{[9-chloro-7-(2,6-difluorophenyl)-5H-pyrimido[5,4-d][2]benzazepin-2-yl]amino}-N-methylbenzamide]
CNC1CCCN(C(=O)c2ccc(Nc3ncc4c(n3)-c3ccc(Cl)cc3C(c3c(F)cccc3F)=NC4)cc2)C1 (centres unmarked) [Compound I-253, 9-chloro-7-(2,6-difluorophenyl)-N-(4-{[3-(methylamino)piperidin-1-yl]carbonyl}phenyl)-5H-pyrimido[5,4-d][2]benzazepin-2-amine]
CNCCN(C)C(=O)c1ccc(Nc2ncc3c(n2)-c2ccc(Cl)cc2C(c2c(F)cccc2OC)=NC3)cc1 [Compound I-254, 4-{[9-chloro-7-(2-fluoro-6-methoxyphenyl)-5H-pyrimido[5,4-d][2]benzazepin-2-yl]amino}-N-methyl-N-[2-(methylamino)ethyl]benzamide]
COc1cccc(F)c1C1=NCc2cnc(Nc3ccc(C(=O)N(C)CCN(C)C)cc3)nc2-c2ccc(Cl)cc21 [Compound I-255, 4-{[9-chloro-7-(2-fluoro-6-methoxyphenyl)-5H-pyrimido[5,4-d][2]benzazepin-2-yl]amino}-N-[2-(dimethylamino)ethyl]-N-methylbenzamide]
COc1cccc(Nc2ncc3c(n2)-c2ccc(C(=O)O)cc2C(c2ccccc2F)=NC3)c1 [Compound I-256, 7-(2-fluorophenyl)-2-[(3-methoxyphenyl)amino]-5H-pyrimido[5,4-d][2]benzazepine-9-carboxylic acid]
CN(CCCN)C(=O)c1ccc(Nc2ncc3c(n2)-c2ccc(Cl)cc2C(c2c(F)cccc2F)=NC3)cc1 [Compound I-257, N-(3-aminopropyl)-4-{[9-chloro-7-(2,6-difluorophenyl)-5H-pyrimido[5,4-d][2]benzazepin-2-yl]amino}-N-methylbenzamide]
